Measurements taken from patent US12421226B2, “Heteroaryl compounds as necrosis inhibitors, composition and method using the same” (Accro Bioscience (HK), priority 2019, dated 2025).

Legend:
[1] = tested on: L929 mouse skin fibroblast cells; experiment: Necroptosis inhibition in L929 cell assay (TNF-α/z-VAD induced, cell viability by ATP levels); assay type: cell-based; settings: 1 h pre-treatment with compound, then TNF-α 40 ng/mL + z-VAD 20 μM for 48 hours
Protocol: 2. Compounds Tested for Necroptosis Inhibition Activities in L929 Cell Assay
(§1) Mouse L929 mouse skin fibroblast cells were added to 96-well plates and then were pre-treated with 10 μM of the test compound for one hour. Then the cells were treated with TNF-α (40 ng/mL, lab-made) and z-VAD (capase inhibitor, from calbiochem) (20 μM) for 48 hours, and the viability of cells was quantified by detecting adenosine triphosphate (ATP) levels. DMSO pretreatment group was used as negative controls, Nec-1 (known necroptosis inhibitor, from Biomol) pretreatment group was used as positive controls.

HT29 cells = experiment: Necroptosis inhibition in HT29 cell assay (TNF-α/Smac mimetic/z-VAD induced, cell viability); assay type: cell-based; settings: then TNF-α 40 ng/mL + Smac mimetic 100 nM + z-VAD 20 μM for 48 hours
Protocol: 1. Compounds Tested for Necroptosis Inhibition Activities in HT29 Cell Assay
as §1, with “For this assay, HT29” for “Mouse L929 mouse skin fibroblast”, “tumor necrosis factor alpha (TNF-α, 40 ng/mL), Smacmimetic (cIAP inhibitor) (100 nM)” for “TNF-α (40 ng/mL, lab-made)”, “quantified.” for “quantified by detecting adenosine triphosphate (ATP) levels.”

[2] = Homo sapiens, HT-29, 1 h pre-treatment with compound

SMILES | IC50 ([1]; Mus musculus) | IC50 (HT29 cells; [2]) | IC50 [1] | IC50 (HT29 cells; 1 h pre-treatment with compound)
O=C(Nc1nc2ccc(-c3cnc4ccn(C(=O)NC5CCCCC5)c4c3)cc2s1)C1CC1 [Compound C33, N-cyclohexyl-6-[2-(cyclopropanecarbonylamino)-1,3-benzothiazol-6-yl]pyrrolo[3,2-b]pyridine-1-carboxamide] | 0.3 nM | 4.6 nM | – | –
O=C(NC1CCOCC1)c1nsc2ncc(-c3ccc4nc(NC(=O)C5CC5)sc4c3)cc12 [Compound C14, 5-[2-(cyclopropanecarbonylamino)-1,3-benzothiazol-6-yl]-N-tetrahydropyran-4-yl-isothiazolo[5,4-b]pyridine-3-carboxamide] | 1.3 nM | 4.7 nM | – | –
O=C(Nc1nc2ccc(-c3cnc4ccn(C(=O)CC5CCOCC5)c4c3)cc2s1)C1CC1 [Compound C8, N-[6-[1-(2-tetrahydropyran-4-ylacetyl)pyrrolo[3,2-b]pyridin-6-yl]-1,3-benzothiazol-2-yl]cyclopropanecarboxamide] | 17 nM | 440 nM | – | –
O=C(Nc1nc2ccc(-c3cnc4ccn(C(=O)OC5CCC(F)(F)CC5)c4c3)cc2s1)C1CC1 [Compound C4, (4,4-difluorocyclohexyl) 6-[2-(cyclopropanecarbonylamino)-1,3-benzothiazol-6-yl]pyrrolo[3,2-b]pyridine-1-carboxylate] | 3.2 nM | 83 nM | – | –
CN1C(=O)C(Cc2c[nH]c3ccccc23)NC1=S (stereo not shown) [Nec-1, reference compound] | – | – | 1250 nM | 300 nM
O=C(NC1CCC(F)(F)CC1)c1nsc2ncc(-c3ccc4nc(NC(=O)C5CC5)sc4c3)cc12 [Compound C30, 5-[2-(cyclopropanecarbonylamino)-1,3-benzothiazol-6-yl]-N-(4,4-difluorocyclohexyl)isothiazolo[5,4-b]pyridine-3-carboxamide] | 0.8 nM | 10 nM | – | –
O=C(NC1CCOCC1)c1csc2ncc(-c3ccc4nc(NC(=O)C5CC5)sc4c3)cc12 [Compound C12, 5-[2-(cyclopropanecarbonylamino)-1,3-benzothiazol-6-yl]-N-tetrahydropyran-4-yl-thieno[2,3-b]pyridine-3-carboxamide] | 1.5 nM | 7.3 nM | – | –
O=C(NC1CCCCC1)c1csc2ncc(-c3ccc4nc(NC(=O)C5CC5)sc4c3)cc12 [Compound C18, N-cyclohexyl-5-[2-(cyclopropanecarbonylamino)-1,3-benzothiazol-6-yl]thieno[2,3-b]pyridine-3-carboxamide] | 0.3 nM | 1 nM | – | –
O=C(Nc1nc2ccc(-c3cnc4ccn(C(=O)OC5CCOCC5)c4c3)nc2s1)C1CC1 [Compound C3, tetrahydropyran-4-yl 6-[2-(cyclopropanecarbonylamino)thiazolo[5,4-b]pyridin-5-yl]pyrrolo[3,2-b]pyridine-1-carboxylate] | 72.8 nM | 9.6 nM | – | –
O=C(Nc1cn2cc(-c3cnc4ccn(C(=O)OC5CCOCC5)c4c3)ccc2n1)C1CC1 [Compound C6, tetrahydropyran-4-yl 6-[2-(cyclopropanecarbonylamino)imidazo-[1,2-a]pyridin-6-yl]pyrrolo[3,2-b]pyridine-1-carboxylate] | 50 nM | 56 nM | – | –
CNC(=O)Nc1nc2ccc(-c3cnc4scc(C(=O)NC5CCCCC5)c4c3)cc2s1 [Compound C20, N-cyclohexyl-5-[2-(methylcarbamoylamino)-1,3-benzothiazol-6-yl]thieno[2,3-b]pyridine-3-carboxamide] | 0.6 nM | 1.6 nM | – | –
